Test results from patent US6482982B1, “Halogenated antituberculosis agents” (University of Sciences of Philadelphia, priority 2001, dated 2002).
Converted amounts (≈) assume the structure as drawn. “And” between values parts separate entries of the source, which are not always exact repeats. Equal values may be shown once. Read-outs that look alike come from different tables or passages of the source.

How the values were obtained:
[1] = test system: Mycobacterium tuberculosis H37Rv (ATCC 27294); assay: Primary screening of anti-mycobacterial activity (Bactec); assay type: cell-based; design: % inhibition: concentration or dose not given beside the values; conditions: for MIC: Mycobacterium tuberculosis
M. tuberculosis H37Rv [2] = assay: Minimum bactericidal concentration (MBC) against H37Rv; assay type: cell-based, Mycobacterium tuberculosis
VERO cells [3] = conditions: for SI (selectivity index, IC50:MIC ratio): IC50 in VERO cells to MIC H37Rv
M. tuberculosis Erdman = assay: MIC (MABA) against M. tuberculosis Erdman; assay type: cell-based; conditions: Mycobacterium tuberculosis, Alamar assay
VERO cells [4] = assay: cells; conditions: Chlorocebus sabaeus
M. tuberculosis H37Rv [5] = assay: MIC determination by Microplate Alamar Blue Assay (MABA) against H37Rv; assay type: cell-based, Mycobacterium tuberculosis; conditions: for MIC: Mycobacterium tuberculosis
[6] = test system: M. tuberculosis Erdman (ATCC 35801); assay: Killing of M. tuberculosis Erdman in monolayers of mouse bone marrow macrophages
Method: Compounds were then tested for killing of M. tuberculosis Erdman (ATCC 35801) in monolayers of mouse bone marrow macrophages.

[7] = preliminary anti-TB test (primary screening), Bactec assay, read-out: MIC
[8] = preliminary anti-TB test (primary screening), Bactec assay
[9] = read-out: IC50 (overt toxicity)
[10] = H37RV, comparison with parent drug, read-out: MIC against M. tuberculosis H37Rv (determined by MABA system)
[11] = Alamar assay, actual MIC at lower concentrations, H37Rv, read-out: MIC
[12] = read-out: IC50 (reference drugs, Comments column)

COC(=O)c1cc(F)c(NC(C)=O)cc1O [Compound 11, Methyl 4-acetamido-5-fluorosalicylate]
MIC [1, 7]: > 12.5 µg/mL | % inhibition [1, 8]: 0% | Activity [1, 8]: Negative

Nc1cc(O)c(C(=O)O)cc1F [Compound 12, 4-Amino-5-fluorosalicylic Acid]
H37Rv MBC (M. tuberculosis H37Rv [2]): > 200 µg/mL | SI (selectivity index, IC50:MIC ratio) (VERO cells [3]): >10 | MIC (M. tuberculosis Erdman): 12.5 µg/mL (≈ 73 µM) | IC50 (VERO cells [4]; [9]): > 62.5 µg/mL | % inh. (M. tuberculosis H37Rv [5]; Alamar assay, H37Rv): 94% | MIC (M. tuberculosis H37Rv [5]; [10]): ≤ 3.13 µg/mL | MIC (M. tuberculosis H37Rv [5]; [11]): 6.25 µg/mL (≈ 36.5 µM) | MIC [1]: < 12.5 µg/mL | % inhibition [1, 8]: 94% | Activity [1, 8]: Positive

CC(=O)Nc1ccc(/C=N/NC(N)=S)cc1F [Compound 16, 4-Acetamido-3-fluorobenzaldehyde thiosemicarbazone]
H37Rv MBC (M. tuberculosis H37Rv [2]): 6.25 µg/mL | SI (selectivity index, IC50:MIC ratio) (VERO cells [3]): > 312.5 | SI (selectivity index, IC50:MIC ratio) (VERO cells [3]; listed as Comp. 16): >312.5 | toxicity (in words) (VERO cells [3]; general statement): non-toxic | MIC (M. tuberculosis Erdman): 0.2 µg/mL (≈ 0.787 µM) | EC99 ([6]; 99% reduction in colony forming units at seven days, mouse bone marrow macrophages): >3.2 | EC90 ([6]; Mycobacterium tuberculosis, ATCC35801|ERDMAN, Bone marrow macrophage, in Mus musculus, 168 h): 1.7 µg/mL (≈ 6.69 µM) | IC50 (VERO cells [4]; [9]): > 62.5 µg/mL | % inh. (M. tuberculosis H37Rv [5]; Alamar assay, H37Rv): 99% | MIC (M. tuberculosis H37Rv [5]; [10]): ≤ 0.1 µg/mL | MIC (M. tuberculosis H37Rv [5]; [11]): 0.2 µg/mL (≈ 0.787 µM) | activity against M. Tuberculosis (in words) (M. tuberculosis H37Rv [5]; general statement): highly active | MIC [1, 7]: < 12.5 µg/mL | % inhibition [1, 8]: 99% and > 90% | Activity [1, 8]: Positive

CC(=O)Nc1ccc(/C=N/NC(N)=S)c(F)c1 [Compound 17, 4-Acetamido-2-fluorobenzaldehyde thiosemicarbazone]
MIC [1, 7]: < 6.25 µg/mL | Activity [1, 8]: Positive

CC(=O)Nc1ccc(/C=N/NC(N)=S)cc1Cl [Compound 25, 4-Acetamido-3-chlorobenzaldehyde thiosemicarbazone]
MIC [1, 7]: < 6.25 µg/mL | Activity [1, 8]: Positive

CC(=O)Nc1ccc(/C=N/NC(N)=S)cc1Br [Compound 29, 4-Acetamido-3-bromobenzaldehyde thiosemicarbazone]
MIC [1, 7]: < 6.25 µg/mL | Activity [1, 8]: Positive

CC(=O)Nc1ccc(/C=N/NC(N)=S)cc1I [Compound 34, 4-Acetamido-3-iodobenzaldehyde thiosemicarbazone]
MIC [1, 7]: < 6.25 µg/mL | Activity [1, 8]: Positive

NNC(=O)c1ccncc1 [INH, isoniazid, reference compound]
IC50 (VERO cells [4]; [12]): 602 µg/mL (≈ 4390 µM)

Nc1ccc(C(=O)O)c(O)c1 [p-aminosalicylic acid, reference compound]
MIC (M. tuberculosis H37Rv [5]; [10]): 1.25 µg/mL (≈ 8.16 µM)

CO[C@H]1/C=C/O[C@@]2(C)Oc3c(C)c(O)c4c(O)c(c(/C=N/N5CCN(C)CC5)c(O)c4c3C2=O)NC(=O)/C(C)=C\C=C\[C@H](C)[C@H](O)[C@@H](C)[C@@H](O)[C@@H](C)[C@H](OC(C)=O)[C@@H]1C [rifampicin, reference compound]
IC50 (VERO cells [4]; [12]): 77.7 µg/mL (≈ 94.4 µM) | MIC (M. tuberculosis H37Rv [5]; [11]): 0.015 µg/mL (≈ 0.0182 µM)

thiacetazone [reference compound]
MIC against M. tuberculosis H37Rv (determined by MABA system) (M. tuberculosis H37Rv [5]; comparison with parent drug): > 2.0 µg/mL
